Experimental data from US20240158370A1, “CK1 alpha AND DUAL CK1 alpha / GSPT1 DEGRADING COMPOUNDS” (Innovo Therapeutics, Inc., priority 2022, published 2024).

Columns and labels:
CK1α = molecular target: T1, CK1α (Homo sapiens, UniProt P48729+Q96SW2); assay: HiBiT degradation assay, CK1α, Procedure A; assay type: cell-based; details: six hours
T1 construct: CSNK1A1-HiBit KI HEK293(LgBit) Cells; host or cells: HEK293(LgBit) knock-in cells
Summary of the method: (§1)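 Six-hour treatment at 37° C, ten doses between 10 μM and 0.005 μM, then HiBiT lytic luminescence. Fitted DC50 and Ymin.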

GSPT1 = GSPT1 (Homo sapiens, UniProt P15170+Q96SW2); assay: HiBiT degradation assay, GSPT1, Procedure A; assay type: cell-based; parameters: HiBit-GSPT1 KI HEK293(LgBit) Cells; host or cells: HEK293(LgBit) knock-in cells; details: six hours
Summary of the method: as §1

T1 sequence (P48729 whole entry): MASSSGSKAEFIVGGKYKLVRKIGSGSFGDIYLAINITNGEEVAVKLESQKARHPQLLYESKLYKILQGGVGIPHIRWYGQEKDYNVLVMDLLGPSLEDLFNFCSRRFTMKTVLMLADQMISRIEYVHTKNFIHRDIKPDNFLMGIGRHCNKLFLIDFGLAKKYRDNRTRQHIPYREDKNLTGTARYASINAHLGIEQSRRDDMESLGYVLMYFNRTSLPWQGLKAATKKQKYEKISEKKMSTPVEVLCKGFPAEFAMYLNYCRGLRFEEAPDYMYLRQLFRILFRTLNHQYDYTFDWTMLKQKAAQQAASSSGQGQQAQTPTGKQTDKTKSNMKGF
T1 sequence (Q96SW2 whole entry): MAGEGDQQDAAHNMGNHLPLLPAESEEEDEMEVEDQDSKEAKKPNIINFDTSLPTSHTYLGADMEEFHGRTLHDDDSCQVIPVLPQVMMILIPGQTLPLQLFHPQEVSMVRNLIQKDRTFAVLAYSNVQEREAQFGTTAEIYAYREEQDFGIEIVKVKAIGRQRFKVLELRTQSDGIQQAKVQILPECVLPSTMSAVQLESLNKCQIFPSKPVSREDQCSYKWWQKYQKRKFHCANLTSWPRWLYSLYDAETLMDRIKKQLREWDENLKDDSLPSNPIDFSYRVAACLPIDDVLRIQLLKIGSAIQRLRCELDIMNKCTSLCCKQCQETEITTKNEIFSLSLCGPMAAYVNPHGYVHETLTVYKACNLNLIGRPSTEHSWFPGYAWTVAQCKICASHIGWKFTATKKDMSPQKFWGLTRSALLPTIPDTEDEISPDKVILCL
T1 sequence (Q16531 whole entry partner): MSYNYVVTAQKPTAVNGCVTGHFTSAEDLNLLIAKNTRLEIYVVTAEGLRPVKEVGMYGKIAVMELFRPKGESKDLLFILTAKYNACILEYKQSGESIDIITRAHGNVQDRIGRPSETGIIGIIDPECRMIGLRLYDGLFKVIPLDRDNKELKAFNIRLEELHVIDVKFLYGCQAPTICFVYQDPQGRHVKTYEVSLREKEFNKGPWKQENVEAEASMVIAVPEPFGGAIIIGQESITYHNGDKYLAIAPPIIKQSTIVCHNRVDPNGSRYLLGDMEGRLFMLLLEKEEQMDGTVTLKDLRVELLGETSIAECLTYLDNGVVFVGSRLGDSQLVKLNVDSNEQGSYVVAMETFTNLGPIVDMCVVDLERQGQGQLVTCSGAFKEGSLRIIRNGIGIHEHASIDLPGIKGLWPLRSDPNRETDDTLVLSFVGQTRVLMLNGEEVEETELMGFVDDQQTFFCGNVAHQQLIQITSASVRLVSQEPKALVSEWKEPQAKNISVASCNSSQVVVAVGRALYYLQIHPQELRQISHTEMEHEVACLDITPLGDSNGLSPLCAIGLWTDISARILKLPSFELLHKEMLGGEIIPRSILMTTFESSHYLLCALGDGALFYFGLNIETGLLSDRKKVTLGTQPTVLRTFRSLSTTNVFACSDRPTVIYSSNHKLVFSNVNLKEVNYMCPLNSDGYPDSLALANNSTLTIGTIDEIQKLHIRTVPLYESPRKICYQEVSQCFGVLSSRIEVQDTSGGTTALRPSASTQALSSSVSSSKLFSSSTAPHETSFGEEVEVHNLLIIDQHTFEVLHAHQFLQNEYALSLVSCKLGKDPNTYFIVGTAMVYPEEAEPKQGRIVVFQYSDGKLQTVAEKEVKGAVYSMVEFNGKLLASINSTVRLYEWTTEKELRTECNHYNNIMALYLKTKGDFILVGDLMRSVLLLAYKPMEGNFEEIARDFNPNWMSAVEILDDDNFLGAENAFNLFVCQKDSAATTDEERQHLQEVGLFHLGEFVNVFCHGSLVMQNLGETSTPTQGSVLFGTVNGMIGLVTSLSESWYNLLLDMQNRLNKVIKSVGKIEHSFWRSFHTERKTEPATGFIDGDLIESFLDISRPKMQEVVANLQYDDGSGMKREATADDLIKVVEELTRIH
Sequence of GSPT1 (P15170 whole entry): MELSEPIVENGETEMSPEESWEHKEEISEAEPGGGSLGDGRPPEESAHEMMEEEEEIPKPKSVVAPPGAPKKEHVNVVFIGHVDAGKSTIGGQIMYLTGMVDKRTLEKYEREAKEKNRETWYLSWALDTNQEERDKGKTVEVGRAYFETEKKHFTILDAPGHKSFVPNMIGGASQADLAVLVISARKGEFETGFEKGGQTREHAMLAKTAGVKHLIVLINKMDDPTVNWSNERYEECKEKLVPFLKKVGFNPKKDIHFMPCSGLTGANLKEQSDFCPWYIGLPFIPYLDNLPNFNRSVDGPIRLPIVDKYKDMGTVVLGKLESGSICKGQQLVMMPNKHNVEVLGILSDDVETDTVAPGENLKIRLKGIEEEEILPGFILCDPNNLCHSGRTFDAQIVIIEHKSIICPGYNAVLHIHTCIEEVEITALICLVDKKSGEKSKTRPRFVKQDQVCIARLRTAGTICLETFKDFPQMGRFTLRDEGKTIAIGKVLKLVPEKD
Sequence of GSPT1 (Q96SW2 whole entry): as the sequence (Q96SW2 whole entry) above
Sequence of GSPT1 (Q16531 whole entry partner): as the sequence (Q16531 whole entry partner) above

| CK1α Ymin (CK1α) | DC50 (CK1α) [nM] | DC50 (GSPT1) [nM] | GSPT1 Ymin (GSPT1) | Compound |
| --- | --- | --- | --- | --- |
| C (C = 0-10% remaining) | < 25 | < 25 | F (F = >75-100% remaining) | COc1cc(-c2nc(-c3ccc4c(c3)CN(C3CCC(=O)NC3=O)C4=O)cn2C)ccc1F (centres unmarked) [Example 583] |
| C (C = 0-10% remaining) | < 25 | ≥ 25 | F (F = >75-100% remaining) | COc1ccc(-c2nc(-c3ccc4c(c3)CN(C3CCC(=O)NC3=O)C4=O)cn2C)cc1Cl (centres unmarked) [Example 584] |
| D (D = >10- 25% remaining) | ≥ 25 | < 25 | F (F = >75-100% remaining) | Cn1cc(-c2ccc3c(c2)CN(C2CCC(=O)NC2=O)C3=O)nc1-c1ccn2ccnc2c1 (centres unmarked) [Example 585] |
| C (C = 0-10% remaining) | < 25 | ≥ 25 | F (F = >75-100% remaining) | Cn1cc(-c2ccc3c(c2)CN(C2CCC(=O)NC2=O)C3=O)nc1-c1cc(F)cc(Cl)c1 (centres unmarked) [Example 586] |
| C (C = 0-10% remaining) | < 25 | ≥ 25 | F (F = >75-100% remaining) | Cn1cc(-c2ccc3c(c2)CN(C2CCC(=O)NC2=O)C3=O)nc1-c1ccc(C(F)F)cc1 (centres unmarked) [Example 587] |
| E (E = >25-75% remaining) | < 25 | ≥ 25 | F (F = >75-100% remaining) | Cn1ncc(-c2ccc3c(c2)CN(C2CCC(=O)NC2=O)C3=O)c1C1=CCCCC1 (centres unmarked) [Example 589] |
| E (E = >25-75% remaining) | ≥ 25 | ≥ 25 | F (F = >75-100% remaining) | CN1CCC(c2c(-c3ccc4c(c3)CN(C3CCC(=O)NC3=O)C4=O)cnn2C)CC1 (centres unmarked) [Example 590] |
| E (E = >25-75% remaining) | ≥ 25 | ≥ 25 | F (F = >75-100% remaining) | Cn1ncc(-c2ccc3c(c2)CN(C2CCC(=O)NC2=O)C3=O)c1C1CCOC1 (centres unmarked) [Example 592] |
| E (E = >25-75% remaining) | ≥ 25 | ≥ 25 | F (F = >75-100% remaining) | Cn1ncc(-c2ccc3c(c2)CN(C2CCC(=O)NC2=O)C3=O)c1C1=CCOC1 (centres unmarked) [Example 593] |
| D (D = >10- 25% remaining) | < 25 | ≥ 25 | F (F = >75-100% remaining) | Cn1cnc(-c2ccc3c(c2)CN(C2CCC(=O)NC2=O)C3=O)c1C1=CCCCC1 (centres unmarked) [Example 595] |
| E (E = >25-75% remaining) | ≥ 25 | ≥ 25 | F (F = >75-100% remaining) | Cn1cnc(-c2ccc3c(c2)CN(C2CCC(=O)NC2=O)C3=O)c1C1CCOC1 (centres unmarked) [Example 597] |
| D (D = >10- 25% remaining) | < 25 | ≥ 25 | E (E = >25-75% remaining) | Cn1cnc(-c2ccc3c(c2)CN(C2CCC(=O)NC2=O)C3=O)c1C1=CCOC1 (centres unmarked) [Example 598] |
| E (E = >25-75% remaining) | < 25 | ≥ 25 | F (F = >75-100% remaining) | Cn1nc(-c2ccc3c(c2)CN(C2CCC(=O)NC2=O)C3=O)nc1C1CCOCC1 (centres unmarked) [Example 599, 3-(5-(1-methyl-5-(tetrahydro-2H-pyran-4-yl)-1H-1,2,4-triazol-3-yl)-1-oxoisoindolin-2-yl)piperidine-2,6-dione] |
| D (D = >10- 25% remaining) | < 25 | ≥ 25 | F (F = >75-100% remaining) | CC1CCN(c2nc(-c3ccc4c(c3)CN(C3CCC(=O)NC3=O)C4=O)nn2C)CC1 (centres unmarked) [Example 600, 3-(5-(1-methyl-5-(4-methylpiperidin-1-yl)-1H-1,2,4-triazol-3-yl)-1-oxoisoindolin-2-yl)piperidine-2,6-dione] |
| D (D = >10- 25% remaining) | < 25 | ≥ 25 | F (F = >75-100% remaining) | Cn1nc(-c2ccc3c(c2)CN(C2CCC(=O)NC2=O)C3=O)nc1N1CCc2ccccc2C1 (centres unmarked) [Example 603, 3-(5-(5-(3,4-dihydroisoquinolin-2 (1H)-yl)-1-methyl-1H-1,2,4-triazol-3-yl)-1-oxoisoindolin-2-yl)piperidine-2,6-dione] |
| C (C = 0-10% remaining) | < 25 | ≥ 25 | F (F = >75-100% remaining) | Cn1c(C2CCOCC2)nc(-c2ccc3c(c2)CN(C2CCC(=O)NC2=O)C3=O)c1C1CC1 (centres unmarked) [Example 604, 3-(5-(5-cyclopropyl-1-methyl-2-(tetrahydro-2H-pyran-4-yl)-1H-imidazol-4-yl)-1-oxoisoindolin-2-yl)piperidine-2,6-dione] |
| E (E = >25-75% remaining) | < 25 | ≥ 25 | F (F = >75-100% remaining) | Cn1nc(-c2ccc3c(c2)CN(C2CCC(=O)NC2=O)C3=O)nc1C1CCC(C)(C)CC1 (centres unmarked) [Example 605, 3-(5-(5-(4,4-dimethylcyclohexyl)-1-methyl-1H-1,2,4-triazol-3-yl)-1-oxoisoindolin-2-yl)piperidine-2,6-dione] |
| E (E = >25-75% remaining) | ≥ 25 | ≥ 25 | F (F = >75-100% remaining) | O=C1CCC(N2Cc3cc(-n4cncc4-c4ccccc4)ccc3C2=O)C(=O)N1 (centres unmarked) [Example 607, 3-(1-oxo-5-(5-phenyl-1H-imidazol-1-yl)isoindolin-2-yl)piperidine-2,6-dione] |
| D (D = >10- 25% remaining) | < 25 | ≥ 25 | F (F = >75-100% remaining) | Cn1nc(-c2ccc3c(c2)CN(C2CCC(=O)NC2=O)C3=O)nc1N1CCC2(CC1)CC2 (centres unmarked) [Example 608, 3-(5-(1-methyl-5-(6-azaspiro[2.5]octan-6-yl)-1H-1,2,4-triazol-3-yl)-1-oxoisoindolin-2-yl)piperidine-2,6-dione] |
| E (E = >25-75% remaining) | < 25 | ≥ 25 | F (F = >75-100% remaining) | Cn1nc(-c2ccc3c(c2)CN(C2CCC(=O)NC2=O)C3=O)nc1N1Cc2ccccc2C1 (centres unmarked) [Example 609, 3-(5-(5-(isoindolin-2-yl)-1-methyl-1H-1,2,4-triazol-3-yl)-1-oxoisoindolin-2-yl)piperidine-2,6-dione] |
| D (D = >10- 25% remaining) | < 25 | ≥ 25 | E (E = >25-75% remaining) | CC(C)n1nc(-c2ccccc2)nc1-c1ccc2c(c1)CN(C1CCC(=O)NC1=O)C2=O (centres unmarked) [Example 610, 3-(5-(1-isopropyl-3-phenyl-1H-1,2,4-triazol-5-yl)-1-oxoisoindolin-2-yl)piperidine-2,6-dione] |
| C (C = 0-10% remaining) | < 25 | ≥ 25 | F (F = >75-100% remaining) | Cn1nc(-c2ccc3c(c2)CN(C2CCC(=O)NC2=O)C3=O)nc1N1CCCCCC1 (centres unmarked) [Example 611, 3-(5-(5-(azepan-1-yl)-1-methyl-1H-1,2,4-triazol-3-yl)-1-oxoisoindolin-2-yl)piperidine-2,6-dione] |
| D (D = >10- 25% remaining) | < 25 | ≥ 25 | F (F = >75-100% remaining) | Cn1nc(-c2ccc3c(c2)CN(C2CCC(=O)NC2=O)C3=O)nc1N1CCC(C)(C)CC1 (centres unmarked) [Example 612, 3-(5-(5-(4,4-dimethylpiperidin-1-yl)-1-methyl-1H-1,2,4-triazol-3-yl)-1-oxoisoindolin-2-yl)piperidine-2,6-dione] |
| E (E = >25-75% remaining) | < 25 | ≥ 25 | F (F = >75-100% remaining) | Cn1nc(-c2ccc3c(c2)CN(C2CCC(=O)NC2=O)C3=O)nc1N1CCC(F)(F)CC1 (centres unmarked) [Example 613, 3-(5-(5-(4,4-difluoropiperidin-1-yl)-1-methyl-1H-1,2,4-triazol-3-yl)-1-oxoisoindolin-2-yl)piperidine-2,6-dione] |
| E (E = >25-75% remaining) | ≥ 25 | ≥ 25 | F (F = >75-100% remaining) | Cn1nc(-c2ccc3c(c2)CN(C2CCC(=O)NC2=O)C3=O)nc1[C@H]1CC[C@H](C)CC1 (some centres unmarked) [Example 616, 3-(5-(1-methyl-5-((1r,4r)-4-methylcyclohexyl)-1H-1,2,4-triazol-3-yl)-1-oxoisoindolin-2-yl)piperidine-2,6-dione] |
| E (E = >25-75% remaining) | < 25 | < 25 | F (F = >75-100% remaining) | Cn1nc(-c2ccc3c(c2)CN(C2CCC(=O)NC2=O)C3=O)nc1[C@H]1CC[C@@H](C)CC1 (some centres unmarked) [Example 617, 3-(5-(1-methyl-5-((1s,4s)-4-methylcyclohexyl)-1H-1,2,4-triazol-3-yl)-1-oxoisoindolin-2-yl)piperidine-2,6-dione] |
| D (D = >10- 25% remaining) | < 25 | ≥ 25 | F (F = >75-100% remaining) | Cc1cn(-c2ccc3c(c2)CN(C2CCC(=O)NC2=O)C3=O)nc1-c1ccccc1 (centres unmarked) [Example 618, 3-(5-(4-methyl-3-phenyl-1H-pyrazol-1-yl)-1-oxoisoindolin-2-yl)piperidine-2,6-dione] |

| Compound | CK1α Ymin (CK1α) | DC50 (CK1α) [nM] | DC50 (GSPT1) [nM] | GSPT1 Ymin (GSPT1) |
| --- | --- | --- | --- | --- |
| CN1CC=C(c2c(-c3ccc4c(c3)CN(C3CCC(=O)NC3=O)C4=O)cnn2C)CC1 (centres unmarked) [Example 591] | E (E = >25-75% remaining) | ≥ 25 | < 25 | F (F = >75-100% remaining) |
| CN1CC=C(c2c(-c3ccc4c(c3)CN(C3CCC(=O)NC3=O)C4=O)ncn2C)CC1 (centres unmarked) [Example 596] | C (C = 0-10% remaining) | ≥ 25 | ≥ 25 | F (F = >75-100% remaining) |
